Assay results as given in patent US20180050033A1, “ANTIFUNGAL TREATMENT OF RHEUMATOID ARTHRITIS” (Gerbe Labs Inc., priority 2016, published 2018).
Converted amounts (≈) assume the structure as drawn.

Tests used:
Assay type in all cases: cell-based
[1] = system: co-culture of Aspergillus fumigatus + Candida albicans spores (1:1); experiment: Broth microdilution MIC assay, co-culture
Description: (§1) Broth Microdilution Minimal Inhibitory Concentration (MIC) assays were performed to obtain the MIC values for Itraconazole and Ketoconazole with an antibiotic (Vancomycin or Tobramycin or Amikacin) against the two fungal strains.
(§2) Fungal strains: Aspergillus fumigatus MYA3626 and Candida albicans ATCC 90028 strains were obtained from the American Type Culture Collection (Manassas, Va.). The strains were maintained as a frozen glycerol stocks at −80° C. The fungal strains were prepared by thawing a glycerol stock, streaking and growing onto Sabouraud's Dextrose Agar (SDA) plates, overnight at 35±2° C. in aerobic conditions and used for the assay.
(§3) Antifungal agents: Itraconazole (Cat #16657, Lot #087K1322), Ketoconazole (Cat # K1003, Lot # SLBR1290V). Stocks were prepared in appropriate solvents following the CLSI guidelines. See, for example, Reference method for broth dilution antifungal susceptibility testing of filamentous fungi, approved standard, 2nd ed. CLSI document M38-A2, vol. 28. CLSI, Wayne, Pa. (2008).
(§4) The completely synthetic medium RPMI-1640 (with glutamine, without bicarbonate, and with phenol red as a pH indicator) was buffered with 0.165 mol/L MOPS (3-[N-morpholino] propanesulfonic acid) buffer was used as the growth medium for the fungal strains. Overnight cultures of the fungal strains were grown on Difco™ Sabouraud's Dextrose Agar (SDA) plates at 35° C. To induce conidium and sporangiospore formation, the culture plates were transferred to incubator and grown for 5-7 days 30° C. or until good sporulation was obtained. Approximately, 10 mL of 0.85% saline containing 0.01% of Tween 80 was used to poured on to the agar plate containing conidia or sporangiospores and hyphal fragments. The suspension containing conidia or sporangiospores and hyphal fragments was aspirated and transferred to a sterile tube. This mixture was filtered to separate the spores from the vegetative cells of the fungi. The supernatant containing only fungal spores was used for all the assays. Fungal spore inoculum was prepared in RPMI-1640 (with glutamine, without bicarbonate, and with phenol red as a pH indicator) was buffered with 0.165 mol/L MOPS (3-[N-morpholino] propanesulfonic acid) buffer to a final density of 10^6 CFU/mL using a hemocytometer.
(§5) Each MIC assay included 11 2-fold serial dilutions of the antifungal agents. Test concentrations for the test articles were tested at the following concentrations: 64 μg/mL, 32 μg/mL, 16 μg/mL, 8 μg/mL, 4 μg/mL, 2 μg/mL, 1 μg/mL, 0.5 μg/mL, 0.25 μg/mL, 0.125 μg/mL, and 0.0625 μg/mL. Broth microdilution assays were performed according to the procedures detailed in CLSI document M38-A2 (CLSI, 2008). Briefly, 2× stock solutions of test articles were prepared at 128 μg/mL. A two-fold serial dilution of the stock solution were performed. Diluted stock solutions of the fungal spores were adjusted (to be equivalent to 10^6 CFU/mL). 1× final concentration of the antifungals was obtained when they were combined with the fungal spore broth in the microtiter plate. Plates were incubated for 3-5 days at 35±2° C. in an ambient air incubator. MIC values recorded are the minimum concentration of the test articles that inhibits growth as observed by unaided eye. The MIC values was expressed in μg/mL. The assay was carried out in duplicates.

[2] = system: co-culture of Aspergillus fumigatus + Candida albicans spores (1:1); experiment: Checkerboard synergy assay, co-culture; settings: FIG. 7 synergy data, agent alone
Description: (§6) This study evaluated the synergistic activity of 2 antifungal agents (Itraconazole and Ketoconazole) with an antibiotic (Vancomycin or Tobramycin or Amikacin) against the spores of 2 fungi; Aspergillus fumigatus MYA3626 and Candida albicans ATCC 90028; individually as well as in co-cultivation (Aspergillus fumigatus+Candida albicans). Synergy testing was carried out as per checkerboard assay by Victor Lorian methodology. See, for example, Lorian, V. Antibiotics in Laboratory Medicine. Edition 5: (2005).
In vitro activity of the test articles were tested in combination by the Checkerboard assay. See, for example, Lorian, V. Antibiotics in Laboratory Medicine. Edition 5: (2005). The assay was carried out in duplicates. The starting concentrations for the test articles was determined as per the MIC data. Two-fold serial dilutions of 8×MIC for the antifungal agents; Itraconazole and Ketoconazole was performed separately. When Itraconazole and Ketoconazole were combined in a microtiter plate, the concentration of both agents was 2×MIC. 1× final concentration of the antifungal agents were obtained when they were combined with the 10^6 CFU/mL fungal spore inoculum in the microtiter plate. The plates were incubated at 35° C. for 3-5 days. […]
The FIC Index was calculated as follows: […]

[3] = system: Aspergillus fumigatus MYA3626 spores; experiment: Broth microdilution MIC assay; settings: MYA3626SPORES
Description: as §1, §2, §3, §4, §5

[4] = system: Candida albicans ATCC 90028 spores; experiment: Broth microdilution MIC assay; settings: Candida albicans alone
Description: as §1, §2, §3, §4, §5

[5] = system: Aspergillus fumigatus MYA3626 spores; experiment: Checkerboard synergy assay; settings: MYA3626SPORES, FIG. 5 synergy data, agent alone
Description: as §6
(§7) In vitro activity of the test articles were tested in combination by the Checkerboard assay. See, for example, Lorian, V. Antibiotics in Laboratory Medicine. Edition 5: (2005). The assay was carried out in duplicates. The starting concentrations for the test articles was determined as per the MIC data. Two-fold serial dilutions of 8×MIC for the antifungal agents; Itraconazole and Ketoconazole was performed separately. When Itraconazole and Ketoconazole were combined in a microtiter plate, the concentration of both agents was 2×MIC. 1× final concentration of the antifungal agents were obtained when they were combined with the 10^6 CFU/mL fungal spore inoculum in the microtiter plate. The plates were incubated at 35° C. for 3-5 days. The assay plates were visually inspected to confirm the MIC endpoint and used to calculate the Fractional Inhibitory Concentration (FIC) Index to determine any synergistic interaction.
(§8) The FIC Index was calculated as follows:
(§9) FIC Index=FICA+FICB • where, A and B are the MIC of the test article and an antifungal in combination (in a single well). MICA and MICB are the MICs of each antifungal individually.
(§10) FIC Index value was used to categorize the interaction, as follows:
(§11) To determine if Itraconazole and Ketoconazole combination had synergistic antifungal activity, a synergy assay was carried out with Itraconazole (1 μg/mL, 0.5 μg/mL, 0.25 μg/mL, 0.125 μg/mL, 0.0625 μg/mL, 0.0312 μg/mL, and 0.0156 μg/mL) and Ketoconazole (8 μg/mL, 4 μg/mL, 2 μg/mL, 1 μg/mL, 0.5 μg/mL, 0.25 μg/mL, 0.125 μg/mL, 0.0625 μg/mL, 0.0312 μg/mL, 0.0156 μg/mL and 0.0078 μg/mL) against Aspergillus fumigatus alone, Candida albicans alone, and against Aspergillus fumigatus+Candida albicans co-culture.

[6] = system: Candida albicans ATCC 90028 spores; experiment: Checkerboard synergy assay; settings: ATCC90028, FIG. 6 synergy data, agent alone
Description: as §6, §7, §8, §9, §10, §11

Candida albicans = experiment: Culture and sensitivity, Patient 7; settings: culture from Patient 7
Text: (§12) The patient underwent the standard workup for CRS, sleep disorder, and nasal obstruction, plus our diagnostic skin test and sinus CT scan.

[7] = system: S. aureus, a gram negative bacteria; experiment: Culture and sensitivity, Patient 7; settings: culture from Patient 7
Text: as §12

[8] = Aspergillus fumigatus, Table 3, read-out: MIC
[9] = Aspergillus fumigatus, Table 4, repeated MIC study, agent alone, read-out: MIC
[10] = Table 3, Aspergillus fumigatus alone, 10^6 CFU/mL spores, 3-5 days at 35° C.
[11] = Table 4, repeated MIC study, Aspergillus fumigatus alone
[12] = ATCC90028, Table 3, 10^6 CFU/mL spores, 3-5 days at 35° C., read-out: MIC

Row | SMILES | MIC [1, 8] [µg/mL] | MIC [1, 9] [µg/mL] | MIC ([1]; Table 4, repeated MIC study, agent alone, listed as Itraconazone) [µg/mL] | MIC [2] [µg/mL] | MIC [3, 10] [µg/mL] | MIC [3, 11] [µg/mL] | MIC [4, 12] [µg/mL] | MIC ([4]; Table 4, repeated MIC study) [µg/mL] | MIC [5] [µg/mL] | MIC [6] [µg/mL] | Sensitivity of cultured Candida albicans (Candida albicans) | Sensitivity of cultured bacteria [7]
1 | CCC(C)n1ncn(-c2ccc(N3CCN(c4ccc(OCC5COC(Cn6cncn6)(c6ccc(Cl)cc6Cl)O5)cc4)CC3)cc2)c1=O (stereo not drawn) [Itraconazole] | 0.5 (≈ 0.709 µM) | 1 (≈ 1.42 µM) | 1 (≈ 1.42 µM) | > 0.5 | 0.5 (≈ 0.709 µM) | 1 (≈ 1.42 µM) | 0.06 (≈ 0.085 µM) | 0.06 (≈ 0.085 µM) | > 0.5 | > 0.0312 | – | –
2 | CC(=O)N1CCN(c2ccc(OCC3COC(Cn4ccnc4)(c4ccc(Cl)cc4Cl)O3)cc2)CC1 (stereo not drawn) [Ketoconazole] | 16 (≈ 30.1 µM) | 8 (≈ 15.1 µM) | – | > 4 | 16 (≈ 30.1 µM) | 8 (≈ 15.1 µM) | 0.06 (≈ 0.113 µM) | 0.06 (≈ 0.113 µM) | > 4 | > 0.0312 | sensitive | –
3 | NC[C@H]1O[C@H](O[C@H]2[C@H](O)[C@@H](O[C@H]3O[C@H](CO)[C@@H](O)[C@H](N)[C@H]3O)[C@H](N)C[C@@H]2N)[C@H](N)C[C@@H]1O [tobramycin] | – | – | – | – | – | – | – | – | – | – | – | sensitive
